{
  "source": "paper PMC4601023",
  "about": "“Novel anticancer agent, SQAP, binds to focal adhesion kinase and modulates its activity” (Scientific Reports, 2015)",
  "format_in_all_cases": "cell-based, human",
  "key": {"[1]": {"system": "paxillin phosphorylation at Y118 in HUVEC", "assay": "Paxillin phosphorylation in HUVEC, Western blotting", "conditions": "total paxillin unaltered", "from_the_text": "Furthermore, we looked at FAK signaling pathway to validate our results. Paxillin binds to FAK 919–938 residues which is a sequence contained within the region where SQAP is predicted to bind. Binding between paxillin and FAK results in paxillin phosphorylation at Y118[35][36]. Thus, we examined paxillin phosphorylation. […] Additionally, we studied Akt phosphorylation at S473 on account of FAK is a known factor in control of Akt activity. We observed that Akt phosphorylation was diminished when treated with SQAP or SQMG for 21 h (see Supplementary Fig. S3).\nCells were harvested and solubilized in RIPA buffer (20 mM Tris-HCl, pH 7.5, 1% Sodium deoxycholate, 150 mM NaCl, 5 mM EDTA, 1% Triton X-100, 0.1% SDS, 0.1%, 1 mM PMSF, 1 mM vanadate and 1 μg/mL leupeptin). Protein quantification was determined using the DC protein assay kit (Bio-Rad, Hercules, CA, USA). A total of 15 μg of each protein sample were separated by SDS–PAGE gels and blotted onto polyvinylidene difluoride membranes (Merck, Kenilworth, NJ, US). After blocking for 1 h with Blocking-One (Nacalai Tesque, Kyoto, Japan), proteins were detected by incubating the membranes with the primary antibody at 4 °C overnight (anti-Y397 2:2000, anti-Y925 5:2000 and anti-FAK 0.5:2000) followed by incubation with horseradish peroxidase-conjugated secondary antibodies at room temperature for 1 h (anti-mouse 0.5:2000 and anti-rabbit 0.4:2000)."}, "[2]": {"system": "VEGF mRNA expression in HUVEC cells", "assay": "VEGF mRNA expression, quantitative real-time RT-PCR, HUVEC", "conditions": "6 h SQAP treatment", "method": "Figure 5 Effect of SQAP on FAK phosphorylation. The level of FAK phosphorylated at Y397 and Y925 was evaluated by Western blotting. (A) HUVEC cells were serum-depleted for 20 h before treatment with SQAP or vehicle for 30 min followed by treatment with or without VEGF (50 ng/mL) for 30 min. (B) HUVEC cells were cultured as stated in section A and then treated with SQAP, SQMG or SQP. (C) A549 cells were serum-deprived for 48 h before pretreatment with SQAP or vehicle followed by treatment with or without fibronectin (10 μg/mL) for 30 min. (D) A549 cells were cultured as stated in section C and then treated with SQAP, SQMG or SQP. (E–F) HUVEC and A549 cells were treated with SQAP for 6 h before adding an RNA stabilization reagent and prepared for Quantitative real-time RT-PCR.\nTotal RNA was prepared using an RNeasy Mini Kit (QIAGEN Inc., Hilden, Germany) according to the manufacturer’s instructions and then reverse-transcribed to cDNA with Transcriptor First Strand cDNA Synthesis Kit (Roche Applied Science, Mnnheim, Germany). Measurement of gene expression by quantitative analysis was performed using the LightCycler system (Roche Applied Science). Quantitative real-time RT-PCR analysis of β-actin, TSP-1 and VEGF-A expression were performed using the LightCycler FastStart DNA MasterPLUS SYBR Green I system (Roche Applied Science). […]"}, "[3]": {"system": "HUVEC cells", "assay": "In vitro cell migration assay (Oris kit), HUVEC", "conditions": "96 well cell migration kit", "method": "(§1) Figure 6 SQAP inhibits cell migration in vitro. (A) HUVEC cells were seeded and grown to 100% confluence in 60-mm diameter dishes. After generating a single scratch in the monolayer, the cells were cultured for 11 h in medium containing 1% FBS and VEGF (50 ng/mL) in the presence or absence of SQAP. Photographs were taken immediately after 11 h. (B) The change in wound width was measured as described in the Materials and Methods. (C) A549 cells were seeded and grown to 100% confluence in 60-mm diameter dishes. After generating a single scratch in the monolayer, the cells cultured for the 25 h in media containing 1% FBS and fibronectin (10 μg/ml) treated with SQAP or vehicle. Photographs were collected immediately after wounding and after 25 h. (D) The change in wound width was measured as described in the Materials and Methods. Cell migration was additionally examined in 96 well plates. HUVEC (E) and A549 cells (F) were seeded and grown into confluence overnight. […] The fluorescent emission signal was obtained with a plate reader. […]\n(§2) Wound healing was additionally assessed in HUVEC or A549 cells using a cell migration kit (Oris, Madison, WI, USA) as described by the manufacturer. […] The fluorescence emission signal in the migration zones was measured on a Wallac Arvo 5x microplate reader (Perkin Elmer, Waltham, MA, USA)."}, "[4]": {"system": "A549 cells", "assay": "In vitro cell migration assay (Oris kit), A549", "conditions": "A549, 96 well cell migration kit", "method": "as §1, §2"}},
  "data": [
    {"compound": "CCCCCCCCCCCCCCCCCC(=O)OCCCO[C@H]1O[C@H](CS(=O)(=O)O)[C@@H](O)[C@H](O)[C@H]1O", "note": "[SQAP, sulfoquynovosylacylpropanediol]", "values": [
      {"measurement": "paxillin phosphorylation at Y118", "setting": "[1]", "result": "inhibition of paxillin-phosphorylation"},
      {"measurement": "VEGF production level (mRNA, RT-PCR)", "setting": "[2]", "result": "reduced"},
      {"measurement": "cell migration", "setting": "[3]", "result": "arrested"},
      {"measurement": "cell migration", "setting": "[4]", "result": "arrested"}
    ]}
  ]
}
